Results from patent publication US10017509B2, “Macrocylic pyrimidine derivatives” (Janssen Pharmaceutica NV, priority 2014, dated 2018).

Experiments:
EF2K [1] = biological target: T1, EF2K (Homo sapiens, UniProt O00418); test: Biochemical EF2K lysate-based kinase assay (AlphaLISA p-eEF2 Thr56); settings: pIC50 = -log IC50 (M), read-out: eEF2K_C_alphalisa pIC50 (converted)
T1 construct: host or cells: LN-229 cell lysate
T1 sequence (O00418 1-725): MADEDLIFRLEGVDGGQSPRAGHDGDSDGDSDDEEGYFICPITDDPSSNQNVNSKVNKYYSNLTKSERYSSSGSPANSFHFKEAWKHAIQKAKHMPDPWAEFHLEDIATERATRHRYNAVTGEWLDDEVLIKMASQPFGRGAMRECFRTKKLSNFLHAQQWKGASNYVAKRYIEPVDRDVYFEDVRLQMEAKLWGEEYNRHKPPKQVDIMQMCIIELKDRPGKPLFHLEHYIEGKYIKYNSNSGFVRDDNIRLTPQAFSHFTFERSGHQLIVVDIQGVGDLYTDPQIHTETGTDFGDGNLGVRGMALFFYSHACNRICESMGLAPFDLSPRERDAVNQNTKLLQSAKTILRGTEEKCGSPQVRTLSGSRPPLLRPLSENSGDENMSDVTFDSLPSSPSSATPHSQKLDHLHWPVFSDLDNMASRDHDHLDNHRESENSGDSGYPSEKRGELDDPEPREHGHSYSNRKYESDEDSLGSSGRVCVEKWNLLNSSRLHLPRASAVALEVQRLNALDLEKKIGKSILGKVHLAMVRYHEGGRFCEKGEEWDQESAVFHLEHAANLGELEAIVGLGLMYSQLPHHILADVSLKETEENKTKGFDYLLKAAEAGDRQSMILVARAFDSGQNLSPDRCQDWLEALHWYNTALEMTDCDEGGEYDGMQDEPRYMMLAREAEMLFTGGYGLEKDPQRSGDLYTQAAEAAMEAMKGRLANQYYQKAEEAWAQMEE
Outline: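 LN-229 glioblastoma lysate supplied both EF2K and eEF2 substrate; compound incubated 15 min at room temperature in pH 6.6 buffer with 10 mM Mg2+ and 10 mM ATP. EDTA-stopped; phospho-eEF2 Thr56 quantified by AlphaLISA sandwich, final read after overnight. Values as pIC50.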

EF2K [2] = biological target: T1, EF2K; test: EF2K cell-based assay (P-EF2 AlphaLISA, 2-deoxyglucose stimulated MCF10A cells); settings: 2.5 mM 2-deoxyglucose stimulated, P-EF2 Thr56, pIC50 = -log IC50 (M), read-out: eEF2K_C_PThr56 pIC50 (converted)
Outline: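 MCF10A cells, after 24 h culture, treated 1 h with compound then stimulated 4 h with 2.5 mM 2-deoxyglucose to activate AMPK. Lysates in M-PER with protease/phosphatase inhibitors assayed for P-EF2 by AlphaLISA; pIC50 = −log IC50 (M).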

[3] = biological target: Vps34 (PIK3C3 lipid kinase) (Homo sapiens, UniProt Q8NEB9); test: Biochemical Vps34 lipid kinase assay (ADP-Glo); settings: for remaining activity at 1 µM: 1 h, read-out: VPS34_1microM_% of cntrl; for IC50: serial half-log dilution 10 μM to 0.3 nM, pIC50 = -log IC50 (M)
Vps34 (PIK3C3 lipid kinase), sequence (Q8NEB9 whole entry, species assumed): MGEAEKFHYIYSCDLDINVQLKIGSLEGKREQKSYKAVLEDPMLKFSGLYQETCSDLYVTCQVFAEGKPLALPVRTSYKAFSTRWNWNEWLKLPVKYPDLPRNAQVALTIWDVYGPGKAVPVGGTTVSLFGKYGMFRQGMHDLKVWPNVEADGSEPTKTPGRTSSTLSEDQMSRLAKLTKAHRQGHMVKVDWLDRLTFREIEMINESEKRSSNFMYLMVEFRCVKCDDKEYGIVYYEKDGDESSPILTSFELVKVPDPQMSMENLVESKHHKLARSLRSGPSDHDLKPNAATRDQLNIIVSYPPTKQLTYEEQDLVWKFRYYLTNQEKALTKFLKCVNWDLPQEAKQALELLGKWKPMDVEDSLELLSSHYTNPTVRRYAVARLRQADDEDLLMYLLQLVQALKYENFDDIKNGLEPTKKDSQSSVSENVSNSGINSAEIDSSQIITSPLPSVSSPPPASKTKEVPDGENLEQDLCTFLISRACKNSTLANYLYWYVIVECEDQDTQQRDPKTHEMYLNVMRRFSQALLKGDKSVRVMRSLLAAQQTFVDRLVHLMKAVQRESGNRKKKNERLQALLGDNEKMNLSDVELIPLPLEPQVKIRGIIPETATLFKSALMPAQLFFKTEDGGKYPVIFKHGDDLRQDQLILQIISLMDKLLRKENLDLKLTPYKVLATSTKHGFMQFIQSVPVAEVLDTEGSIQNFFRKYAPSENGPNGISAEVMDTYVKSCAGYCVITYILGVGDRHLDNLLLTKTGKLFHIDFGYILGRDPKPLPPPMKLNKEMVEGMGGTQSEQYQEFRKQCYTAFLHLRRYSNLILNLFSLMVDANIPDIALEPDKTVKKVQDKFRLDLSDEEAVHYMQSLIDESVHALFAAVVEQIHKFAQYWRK
Outline: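 ADP-Glo luminescence assay of PIK3C3 (7.6 nM) with 50 µM substrate and 20 µM ATP (apparent Km) in HEPES pH 7.5, 100 mM NaCl, 3 mM MnCl2, CHAPS, DTT; 60 min, 30 °C. Single dose 1 µM (residual activity vs DMSO) or half-log series 10 µM-0.3 nM giving pIC50.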

[4] = single dose 1 μM compound, residual activity compared to control (DMSO)

SMILES | IC50 (EF2K [1]) [M] | IC50 (EF2K [2]) [M] | remaining activity at 1 µM [3, 4] [%] | IC50 [3] [M] | VPS34_1microM_% of cntrl [3, 4]
CC1C(=O)N(C)CCCN(C)c2ccc(cn2)-c2ccnc(n2)Nc2cccc(c2)CN2CCN1CC2 (stereo not drawn) [Compound 67] | 1.29e-07 | 3.89e-06 | 32.1 |  | 
O=C1CC2CN(CCN2)Cc2cccc(c2)Nc2nccc(n2)-c2ccc(nc2)NCCCN1 (stereo not drawn) [Compound 70] | 6.03e-06 | > 3.02e-05 | 7.38 | 1.2e-08 | 
CN1CCN2Cc3cccc(c3)Nc3nccc(n3)-c3ccc(nc3)NCCCNC(=O)CC1C2 (stereo not drawn) [Compound 71] | 7.59e-06 | > 3.02e-05 | 12 | 1.74e-08 | 
CN1CCN(C)c2ccc(cn2)-c2ccnc(n2)Nc2cccc(c2)CN2CCNC(CC1=O)C2 (stereo not drawn) [Compound 72] | 3.8e-06 | > 3.02e-05 | 11.5 | 3.02e-07 | 
CN1CCN(C)c2ccc(cn2)-c2ccnc(n2)Nc2cccc(c2)CN2CCN(C)C(CC1=O)C2 (stereo not drawn) [Compound 73] | 1.82e-06 | > 3.02e-05 | 19.6 | 4.07e-07 | 
CN1CCCN(C)c2ccc(cn2)-c2ccnc(n2)Nc2cccc(c2)CN2CCN(C)C(C2)C1=O (stereo not drawn) [Compound 75] | > 3.02e-05 | > 3.02e-05 | 22.9 | 1.38e-06 | 
O=C1CN2CCN(CC2=O)Cc2cccc(c2)Nc2nccc(n2)-c2ccc(nc2)NCCCN1 [Compound 77] | 2.09e-06 | > 3.02e-05 | 6.27 | 1.29e-07 | 
CN1CCCNC(=O)CN2CCN(CC2=O)Cc2cccc(c2)Nc2nccc(n2)-c2ccc1nc2 [Compound 78] | 1.2e-06 | > 3.02e-05 | 7.48 | 1.32e-07 | 
O=C1CC2CCN(CC2)Cc2cccc(c2)Nc2nccc(n2)-c2ccc(nc2)NCCCN1 [Compound 79] | > 3.02e-05 | > 3.02e-05 | 24.3 | 6.03e-07 | 
O=C1CN2CCN(CC2)Cc2cccc(c2)Nc2nccc(n2)-c2ccc(nc2)N2CCCC2CN1 (stereo not drawn) [Compound 80] | 1.74e-07 | 5.5e-06 |  |  | 63.22 % of cntrl
CN1CCCN(C)c2ccc(cn2)-c2ccnc(n2)Nc2cccc(c2)CN2CCC(CC2)CC1=O [Compound 81] | 2.4e-06 | 1.82e-05 | 26.4 | 8.91e-07 | 
CN1CCCN(C)c2ccc(cn2)-c2ccnc(n2)Nc2cccc(c2)CN2CCN(CC1=O)C(=O)C2 [Compound 82] | 3.39e-07 | > 3.02e-05 | 10.8 | 4.07e-07 | 
CN1CCCN(C)c2ccc(cn2)-c2ccnc(n2)Nc2cccc(c2)CN2CCN(CC2)C(=O)C1 [Compound 83] | 1.78e-06 | > 3.02e-05 | 3.25 | 6.92e-08 | 
CN1CCCN(C)c2ncc(cn2)-c2ccnc(n2)Nc2cccc(c2)CN2CCN(CC2)CC1=O [Compound 84] | 2.88e-07 | 8.71e-06 | 30.6 |  | 
O=C1CN2CCN(CC2)Cc2cccc(c2)Nc2nccc(n2)-c2ccc(nc2)NC(=O)CCN1 [Compound 85] | 2.69e-06 | > 3.02e-05 | 47.6 |  | 
CN1CCCN(C)c2ccc(cc2)-c2ccnc(n2)Nc2cccc(c2)CN2CCN(CC1=O)C(C(=O)OCc1ccccc1)C2 (stereo not drawn) [Compound 92] | 8.91e-08 | > 3.02e-05 | 38.3 |  | 
COCC1CN2CCN1Cc1cccc(c1)Nc1nccc(n1)-c1ccc(nc1)N(C)CCCN(C)C(=O)C2 (stereo not drawn) [Compound 97] | 1.51e-07 | 2.24e-05 | 24.6 | 5.37e-07 | 
CN1CCCN(C)c2ccc(cn2)-c2ccnc(n2)Nc2cccc(c2)CN2CCN(CC1=O)CC2COCCN1CCOCC1 (stereo not drawn) [Compound 98] | 1.48e-07 | 2.75e-05 | 33.9 |  | 
COCCOCC1CN2CCN1Cc1cccc(c1)Nc1nccc(n1)-c1ccc(nc1)N(C)CCCN(C)C(=O)C2 (stereo not drawn) [Compound 101] | 1.7e-07 | 2.04e-05 | 29.4 | 7.76e-07 | 

SMILES | IC50 (EF2K [1]) [M] | IC50 (EF2K [2]) [M] | remaining activity at 1 µM [3, 4] [%] | IC50 [3] [M] | VPS34_1microM_% of cntrl [3, 4]
CN1CCCN(C)c2ccc(cn2)-c2ccnc(n2)Nc2cccc(c2)CN2CCN(CC1=O)CC2COCCO (stereo not drawn) [Compound 103] | 1.95e-07 | 1.86e-05 | 28.3 | 6.76e-07 | 
CN1CCN(CCOCC2CN3CCN2Cc2cccc(c2)Nc2nccc(n2)-c2ccc(nc2)N(C)CCCN(C)C(=O)C3)CC1 (stereo not drawn) [Compound 106] | 3.02e-07 | 1.66e-05 | 36.3 |  | 
CN1CCCN(C)c2ccc(cn2)-c2ccnc(n2)Nc2cccc(c2)CN2CCN(CC1=O)CC2COCCN1CCNCC1 (stereo not drawn) [Compound 107] | 3.24e-07 | > 3.02e-05 | 32.7 |  | 
CN(C)CCOCC1CN2CCN1Cc1cccc(c1)Nc1nccc(n1)-c1ccc(nc1)N(C)CCCN(C)C(=O)C2 (stereo not drawn) [Compound 108] | 2.09e-07 | 2.45e-05 | 25.5 | 5.25e-07 | 
CN1CCCN(C)c2ccc(cn2)-c2ccnc(n2)Nc2cccc(c2)CC2CCN(CC2)CC1=O [Compound 109] | 1.35e-06 | > 3.02e-05 | 14.7 | 2.88e-07 | 
CN1CCCN(C)c2ccc(cn2)-c2ccnc(n2)Nc2cccc(c2)N2CCN(CC2)CC1=O [Compound 110] | 1.48e-06 | > 3.02e-05 | 7.68 | 3.47e-07 | 
O=C1CNCCCNc2ccc(cn2)-c2ccnc(n2)Nc2cccc(c2)N2CCN1CC2 [Compound 111] | 4.47e-06 | > 3.02e-05 | 1.43 | 1.7e-07 | 
O=C1CNCCCNc2ccc(cn2)-c2ccnc(n2)Nc2cccc(c2)CN2CCN1CC2 [Compound 112] | 3.89e-06 | 7.41e-06 | 6.25 | 6.03e-08 | 
O=C1CNCCNc2ccc(cn2)-c2ccnc(n2)Nc2cccc(c2)CN2CCN1CC2 [Compound 113] | 2.82e-06 | 4.47e-06 | 7.65 | 1.66e-07 | 
CN1CCCN(C)c2ccc(cn2)-c2ccnc(n2)Nc2cccc(c2)CC2(O)CCN(CC2)CC1=O [Compound 114] | 4.47e-06 | 2.34e-05 | 30.8 |  | 
O=C1CN2CCC(CC2)Cc2cccc(c2)Nc2nccc(n2)-c2ccc(nc2)NCCCN1 [Compound 115] | 2.14e-07 | > 3.02e-05 | 6.01 | 1.51e-07 | 
O=C1CN2CCN(CC2)S(=O)(=O)c2cccc(c2)Nc2nccc(n2)-c2ccc(nc2)NCCCN1 [Compound 116] | 7.76e-06 | > 3.02e-05 | 14 | 4.47e-07 | 
O=C1CN2CCN(CC2)C(=O)c2cccc(c2)Nc2nccc(n2)-c2ccc(nc2)NCCCN1 [Compound 117] | 3.47e-07 | > 3.02e-05 | 11.7 | 2e-07 | 
O=C1CN2CCN(CCc3cccc(c3)Nc3nccc(n3)-c3ccc(nc3)NCCCN1)CC2 [Compound 118] | 7.94e-06 | > 3.02e-05 | 8.1 | 1.41e-07 | 
O=C1CN2CCN(CC2)Cc2cccc(c2)Nc2nccc(n2)-c2ccc(nc2)NCCN1 [Compound 119] | 7.94e-07 | 5.01e-06 | 15.7 | 1.7e-07 | 
O=C1CN2CCN(CC2)Cc2cc(ccc2Cl)Nc2nccc(n2)-c2ccc(nc2)NCCCN1 [Compound 120] | 1.74e-07 | 1.45e-05 | 7.29 | 1.2e-07 | 
COCCN1CCNc2ccc(cn2)-c2ccnc(n2)Nc2cccc(c2)CN2CCN(CC2)CC1=O [Compound 123] | 8.71e-06 | > 3.02e-05 | 23.6 | 3.89e-06 | 
CN1CCCNc2ccc(cn2)-c2ccnc(n2)Nc2cccc(c2)CN2CCC(CC2)CC1=O [Compound 124] | > 3.02e-05 | > 3.02e-05 | 53.2 |  | 
